Measured values: US12053506B2, “Romo1-derived antimicrobial peptides and variants thereof” (priority 2019, dated 2024)
No end group written: not given here.

These sequences were tested on methicillin-resistant Staphylococcus aureus (ATCC 33591) (assay: not given). Conditions: ATCC 33591, 4 h.
Method: (§1) First, each of Pseudomonas aeruginosa (ATCC 27853) and Staphylococcus aureus (ATCC 29213) was cultured in 3% (w/v) TSB (Tryptic Soy Broth) liquid medium at 37° C. and 200 rpm for 4 hours, and then further cultured under the same conditions for 3 hours to a concentration of 5×10^6 CFU/ml. Strain solutions were prepared by diluting each of the further cultured strains with SP (sodium phosphate; 10 mM sodium phosphate, 1% TSB) buffer to a final concentration of 2×10^5 CFU/ml.
(§2) Then, each peptide at varying concentrations (0 μg/ml to 300 μg/ml) was dispensed into each well of a 96-well microplate, and 100 μl (1×10^5 CFU/ml) of each of the prepared strain solutions was added thereto, mixed therewith, and allowed to react with the peptide in an incubator at 37° C. for 1 hour.
(§3) In addition, 30 g/L of TS (tryptic soy) and 15 g/L of agar were dissolved in distilled water and sterilized, and then 25 ml of the solution was poured onto a 100 mm round plate and solidified at room temperature for one day or more, thereby preparing a TS agar plate. 10 μl of each reaction solution of the peptide and the strain was plated on the TS agar plate at a constant size, and incubated in an incubator at 37° C. for 18 hours, and then colony formation on the plate was checked.
(§4) Specifically, each type of bacteria was cultured in 3% (w/v) TSB (Tryptic Soy Broth) liquid medium at 37° C. and 200 rpm for 4 hours, and then further cultured under the same conditions for 3 hours to a concentration of 5×10^6 CFU/ml. Strain solutions were prepared by diluting each of the […] of 2×10^5 CFU/ml.
as §2, with “Then, the KU-5878” for “Then, each”
(§5) In addition, 10 μl of each reaction solution of the peptide and the strain was plated on the TS agar plate at a constant size, and incubated in an incubator at 37° C. for 18 hours, and then colony formation on the plate was checked.

Sequence	MBC value (μg/ml) against methicillin-resistant Staphylococcus aureus
ATMMQSGGTFGTFMAIGMGIR [KU-5878-K58A]	>300 µg/mL
KKMMKKGGTFGTFMAIGMGIR [KU-5878-K3]	5 µg/mL
KKMMKSGGTFGTFMAIGMGIR [KU-5878-K2]	8 µg/mL
KKMMQSGGTFGTFMAIGMGIR [KU-5878-T59K]	45 µg/mL
KRMMQSGGTFGTFMAIGMGIR [KU-5878-T59R]	30 µg/mL
KTMMKSGGTFGTFMAIGMGIR [KU-5878-Q62K]	85 µg/mL
KTMMQKGGTFGTFMAIGMGIR [KU-5878-S63K]	60 µg/mL
KTMMQSGGKFGTFMAIGMGIR [KU-5878-T66K]	70 µg/mL
KTMMQSGGTFGKFMAIGMGIR [KU-5878-T69K]	150 µg/mL

Same assay, conditions: Tables 11-15, no unit printed

Sequence	MBC MRSA
ATMMQSGGTFGTFMAIGMGIR [KU-5878-K58A]	> 300 µg/mL
KKMMKKGGTFGTFMAIGMGIR [KU-5878-K3]	5 µg/mL
KKMMKSGGTFGTFMAIGMGIR [KU-5878-K2]	8 µg/mL
KKMMQSGGTFGTFMAIGMGIR [KU-5878-T59K]	50 µg/mL
KRMMQSGGTFGTFMAIGMGIR [KU-5878-T59R]	30 µg/mL
KTMMKSGGTFGTFMAIGMGIR [KU-5878-Q62K]	90 µg/mL
KTMMQKGGTFGTFMAIGMGIR [KU-5878-S63K]	50 µg/mL
KTMMQSGGKFGTFMAIGMGIR [KU-5878-T66K]	80 µg/mL
KTMMQSGGTFGKFMAIGMGIR [KU-5878-T69K]	150 µg/mL
KTMMQSGGTFGTFMAIGMGKR [KU-5878-I77K]	> 300 µg/mL

What follows are sequences tested on multidrug-resistant Pseudomonas aeruginosa (assay: not given). Conditions: 4 h.
Method: as §1, §2, §3, §4
as §2, with “Then, the KU-5878” for “Then, each”
as §5
Meanwhile, the multidrug-resistant Pseudomonas aeruginosa, multidrug-resistant Acinetobacter and multidrug-resistant Klebsiella in Table 2 below were bacteria isolated from patients at Korea University Anam Hospital. […] Then, these bacteria were used in the experiment.

Sequence	MBC value (μg/ml) against multidrug-resistant Pseudomonas aeruginosa
ATMMQSGGTFGTFMAIGMGIR [KU-5878-K58A]	>300 µg/mL
KKMMKKGGTFGTFMAIGMGIR [KU-5878-K3]	4 µg/mL
KKMMKSGGTFGTFMAIGMGIR [KU-5878-K2]	8 µg/mL
KKMMQSGGTFGTFMAIGMGIR [KU-5878-T59K]	45 µg/mL
KRMMQSGGTFGTFMAIGMGIR [KU-5878-T59R]	35 µg/mL
KTMMKSGGTFGTFMAIGMGIR [KU-5878-Q62K]	90 µg/mL
KTMMQKGGTFGTFMAIGMGIR [KU-5878-S63K]	60 µg/mL
KTMMQSGGKFGTFMAIGMGIR [KU-5878-T66K]	80 µg/mL
KTMMQSGGTFGKFMAIGMGIR [KU-5878-T69K]	150 µg/mL

What follows are sequences tested on CRPA (assay: MBC, evaluation of antibacterial activities of KU-5878 variants). Conditions: Tables 11-15, no unit printed.
Format: cell-based
Method: Variants were prepared by deleting one amino acid from the amino acid sequence of KU-5878 (SEQ ID NO: 13), and the antibacterial activities thereof were evaluated.
Variants were prepared by deleting two or more amino acids from the amino acid sequence of KU-5878 (SEQ ID NO: 13), and the antibacterial activities thereof were evaluated.
One amino acid in the amino acid sequence of KU-5878 (SEQ ID NO: 13) was substituted, and the antibacterial activities of the peptides were evaluated.
Substitutions of Q62K, S63K and T66K were sequentially added to the amino acid sequence of KU-5878-T59K, and the antibacterial activities of the peptides were evaluated.
An amino acid repeat sequence was added to the C-terminus of KU-5878, and the antibacterial activities of the peptides were evaluated. According to Table 15 below, when the R (arginine) repeat sequence or K (lysine) sequence was added to the C-terminus of KU-5878, the antibacterial activity of the peptide increased.

Sequence	MBC CRPA
ATMMQSGGTFGTFMAIGMGIR [KU-5878-K58A]	> 300 µg/mL
KKMMKKGGTFGTFMAIGMGIR [KU-5878-K3]	4 µg/mL
KKMMKSGGTFGTFMAIGMGIR [KU-5878-K2]	6 µg/mL
KKMMQSGGTFGTFMAIGMGIR [KU-5878-T59K]	50 µg/mL
KRMMQSGGTFGTFMAIGMGIR [KU-5878-T59R]	30 µg/mL
KTMMKSGGTFGTFMAIGMGIR [KU-5878-Q62K]	90 µg/mL
KTMMQKGGTFGTFMAIGMGIR [KU-5878-S63K]	50 µg/mL
KTMMQSGGKFGTFMAIGMGIR [KU-5878-T66K]	70 µg/mL
KTMMQSGGTFGKFMAIGMGIR [KU-5878-T69K]	150 µg/mL
KTMMQSGGTFGTFMAIGMGKR [KU-5878-I77K]	> 300 µg/mL

Each sequence was assayed on Staphylococcus aureus (ATCC 29213) (assay: not given). Conditions: ATCC 29213, 1 h.
Format: cell-based
Excerpt: (§6) Romo1 protein comprises two α-helices. The present inventors synthesized the α-helix 2 region having both hydrophilicity and hydrophobicity, and evaluated the antibacterial activity thereof using minimum bactericidal concentration (MBC) assay. The α-helix 2 region was named KU-5279 (the 52-79 amino acid region of Romo1 protein). Then, in order to identify peptides that are beneficial for human application and have excellent antibacterial activity, the present inventors synthesized several peptides comprising a sequence of contiguous amino acids starting at any amino acid selected from the 52-79 amino acid region of Romo1 protein, and comparatively evaluated the antibacterial activities of the peptides by minimum bactericidal concentration assay (See Table 1 below for information on each peptide). Evaluation of the antibacterial activity of each peptide by minimum bactericidal concentration assay was specifically performed as follows. First, each of Pseudomonas aeruginosa (ATCC 27853) and Staphylococcus aureus (ATCC 29213) was cultured in 3% (w/v) TSB (Tryptic Soy Broth) liquid medium at 37° C. and 200 rpm for 4 hours, and then further cultured under the same conditions for 3 hours to a concentration of 5×10^6 CFU/ml. Strain solutions were prepared by diluting each of the further cultured strains with SP (sodium phosphate; 10 mM sodium phosphate, 1% TSB) buffer to a final concentration of 2×10^5 CFU/ml. Then, each peptide at varying concentrations (0 μg/ml to 300 μg/ml) was dispensed into each well of a 96-well microplate, and 100 μl (1×10^5 CFU/ml) of each of the prepared strain solutions was added thereto, mixed therewith, and allowed to react with the peptide in an incubator at 37° C. for 1 hour. In addition, 30 g/L of TS (tryptic soy) and 15 g/L of agar were dissolved in distilled water and sterilized, and then 25 ml of the solution was poured onto a 100 mm round plate and solidified at room temperature for one day or more, thereby preparing a TS agar plate. 10 μl of each reaction solution of the peptide and the strain was plated on the TS agar plate at a constant size, and incubated in an incubator at 37° C. for 18 hours, and then colony formation on the plate was checked. The minimum bactericidal concentration was defined as the minimum concentration of the peptide at which no colony was formed, and the experimental results are shown in Table 1 below.

Sequence	MBC value (μg/ml) against Staphylococcus aureus
ATMMQSGGTFGTFMAIGMGIR [KU-5878-K58A]	>300 µg/mL
KKMMKKGGTFGTFMAIGMGIR [KU-5878-K3]	4 µg/mL
KKMMKSGGTFGTFMAIGMGIR [KU-5878-K2]	8 µg/mL
KKMMQSGGTFGTFMAIGMGIR [KU-5878-T59K]	40 µg/mL
KRMMQSGGTFGTFMAIGMGIR [KU-5878-T59R]	25 µg/mL
KTMMKSGGTFGTFMAIGMGIR [KU-5878-Q62K]	80 µg/mL
KTMMQKGGTFGTFMAIGMGIR [KU-5878-S63K]	50 µg/mL
KTMMQSGGKFGTFMAIGMGIR [KU-5878-T66K]	60 µg/mL
KTMMQSGGTFGKFMAIGMGIR [KU-5878-T69K]	130 µg/mL
KTMMQSGGTFGTFMAIGMGKR [KU-5878-I77K]	>300 µg/mL

Same assay, conditions: Tables 11-15, no unit printed

Sequence	MBC Staphylococcus aureus
ATMMQSGGTFGTFMAIGMGIR [KU-5878-K58A]	> 300 µg/mL
KKMMKKGGTFGTFMAIGMGIR [KU-5878-K3]	4 µg/mL
KKMMKSGGTFGTFMAIGMGIR [KU-5878-K2]	8 µg/mL
KKMMQSGGTFGTFMAIGMGIR [KU-5878-T59K]	40 µg/mL
KRMMQSGGTFGTFMAIGMGIR [KU-5878-T59R]	25 µg/mL
KTMMKSGGTFGTFMAIGMGIR [KU-5878-Q62K]	80 µg/mL
KTMMQKGGTFGTFMAIGMGIR [KU-5878-S63K]	50 µg/mL
KTMMQSGGKFGTFMAIGMGIR [KU-5878-T66K]	60 µg/mL
KTMMQSGGTFGKFMAIGMGIR [KU-5878-T69K]	130 µg/mL
KTMMQSGGTFGTFMAIGMGKR [KU-5878-I77K]	> 300 µg/mL

Each sequence was assayed on Pseudomonas aeruginosa (ATCC 27853) (assay: not given). Conditions: ATCC 27853, 1 h.
Format: cell-based
Excerpt: as §6

Sequence	MBC value (μg/ml) against Pseudomonas aeruginosa
ATMMQSGGTFGTFMAIGMGIR [KU-5878-K58A]	>300 µg/mL
KKMMKKGGTFGTFMAIGMGIR [KU-5878-K3]	4 µg/mL
KKMMKSGGTFGTFMAIGMGIR [KU-5878-K2]	8 µg/mL
KKMMQSGGTFGTFMAIGMGIR [KU-5878-T59K]	50 µg/mL
KRMMQSGGTFGTFMAIGMGIR [KU-5878-T59R]	30 µg/mL
KTMMKSGGTFGTFMAIGMGIR [KU-5878-Q62K]	90 µg/mL
KTMMQKGGTFGTFMAIGMGIR [KU-5878-S63K]	60 µg/mL
KTMMQSGGKFGTFMAIGMGIR [KU-5878-T66K]	80 µg/mL
KTMMQSGGTFGKFMAIGMGIR [KU-5878-T69K]	140 µg/mL
KTMMQSGGTFGTFMAIGMGKR [KU-5878-I77K]	>300 µg/mL

Same assay, conditions: Tables 11-15, no unit printed

Sequence	MBC Pseudomonas aeruginosa
ATMMQSGGTFGTFMAIGMGIR [KU-5878-K58A]	> 300 µg/mL
KKMMKKGGTFGTFMAIGMGIR [KU-5878-K3]	4 µg/mL
KKMMKSGGTFGTFMAIGMGIR [KU-5878-K2]	8 µg/mL
KKMMQSGGTFGTFMAIGMGIR [KU-5878-T59K]	50 µg/mL
KRMMQSGGTFGTFMAIGMGIR [KU-5878-T59R]	30 µg/mL
KTMMKSGGTFGTFMAIGMGIR [KU-5878-Q62K]	90 µg/mL
KTMMQKGGTFGTFMAIGMGIR [KU-5878-S63K]	60 µg/mL
KTMMQSGGKFGTFMAIGMGIR [KU-5878-T66K]	80 µg/mL
KTMMQSGGTFGKFMAIGMGIR [KU-5878-T69K]	140 µg/mL
KTMMQSGGTFGTFMAIGMGKR [KU-5878-I77K]	> 300 µg/mL
